Reference: patent publication US8119806B2, “Cicletanine derivatives” (Merck Sharp & Dohme Corp., priority 2008, dated 2012)

What follows are compounds tested on isolated rabbit thoracic aorta preparations (assay: Vessel relaxation in isolated rabbit thoracic aorta rings precontracted with noradrenaline). Settings: Oryctolagus cuniculus, read-out: Vessel Relaxation Data ED50.

SMILES	EC50
Cc1ncc2c(c1O)CO[C@H]2c1ccc(Cl)cc1	35.8 µM
Cc1ncc2c(c1OC(=O)C1C[C@H](O[N+](=O)[O-])[C@H](O[N+](=O)[O-])C1)CO[C@H]2c1ccc(Cl)cc1 (stereo partly drawn)	6.29 µM
CO[C@H]1C[C@H](C(=O)O)C[C@@H]1O[N+](=O)[O-]	126 µM
CO[C@H]1CC(C(=O)Oc2c(C)ncc3c2CO[C@H]3c2ccc(Cl)cc2)C[C@@H]1O[N+](=O)[O-] (stereo partly drawn)	18.8 µM
CC(=O)N[C@H](C(=O)O)C(C)(C)SN=O (racemic) [SNAP, S-nitroso-N-acetylpenicillamine, reference compound]	0.237 µM

Same assay, conditions: Oryctolagus cuniculus, read-out: vessel relaxation EC50

SMILES	EC50
Cc1ncc2c(c1OC(=O)OC[C@H]1C[C@H](O[N+](=O)[O-])[C@H](O[N+](=O)[O-])C1)COC2c1ccc(Cl)cc1 (stereo partly drawn) [Example 39]	< 50 µM
Cc1ncc2c(c1OC(=O)OC[C@@H]1C[C@H](O[N+](=O)[O-])[C@H](O[N+](=O)[O-])C1)COC2c1ccc(Cl)cc1 (stereo partly drawn) [Example 40]	< 50 µM
Cc1ncc2c(c1OC(=O)O[C@H]1CO[C@H]3[C@@H]1OC[C@H]3O[N+](=O)[O-])COC2c1ccc(Cl)cc1 (stereo partly drawn) [Example 45]	< 50 µM
CO[C@H]1C[C@@H](C(=O)Oc2c(C)ncc3c2CO[C@H]3c2ccc(Cl)cc2)C[C@@H]1O[N+](=O)[O-] [Example 60, (3S)-3-(4-chlorophenyl)-6-methyl-1,3-dihydrofuro[3,4-c]pyridin-7-yl(1R,3S,4S)-3-methoxy-4-(nitrooxy)cyclopentanecarboxylate]	< 50 µM
